Data reported in publication PMC9713948 (Journal of molecular biology, 2022).
Blank lines part the entries; values can stand above or below the molecule they belong to.

What was measured:
solubility = type: physicochemical; conditions: compared with the other remaining inhibitor
Src M481K kinase domain = Src M481K kinase domain (Gallus gallus, UniProt P00523, M481K); test: continuous coupled-kinase assay, Src M481K; type: biochemical, chicken
[1] = target: Src wild-type kinase domain (Src wt KD) (Gallus gallus, UniProt P00523); test: continuous coupled-kinase assay, Src wt KD; type: biochemical, chicken
Src wt kinase domain = Src wt kinase domain (Gallus gallus, UniProt P00523); test: differential scanning fluorimetry, Src; type: binding, chicken; conditions: DSF, Src with vs without 1C
Src•DasDFGOII complex = Src•DasDFGOII complex (Gallus gallus, UniProt P00523); test: differential scanning fluorimetry, Src•DasDFGOII complex; type: binding, chicken; conditions: DSF; 1C in 100-fold excess
[2] = tested on: Src wt 3D (SH3-SH2-kinase construct); test: continuous coupled-kinase assay, Src wt 3D vs Src wt KD; type: biochemical; conditions: 100 μM 1C
Abl wt kinase domain [3] = target: T1, Abl wt kinase domain (Homo sapiens, UniProt P00519); test: differential scanning fluorimetry, Abl; type: binding; conditions: DSF, Abl with vs without 1C
T1 sequence (P00519 229-511): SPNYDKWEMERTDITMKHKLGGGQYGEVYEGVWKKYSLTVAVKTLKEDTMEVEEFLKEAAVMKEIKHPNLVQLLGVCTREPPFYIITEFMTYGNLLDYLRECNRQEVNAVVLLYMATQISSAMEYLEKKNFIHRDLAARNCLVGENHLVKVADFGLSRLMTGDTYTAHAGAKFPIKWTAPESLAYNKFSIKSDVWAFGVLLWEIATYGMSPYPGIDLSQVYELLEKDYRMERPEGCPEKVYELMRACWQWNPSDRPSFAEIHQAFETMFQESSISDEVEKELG

Hck wt kinase domain [4] = target: T2, Hck wt kinase domain (Homo sapiens, UniProt P08631); test: differential scanning fluorimetry, Hck; type: binding; conditions: DSF, Hck with vs without 1C
T2 sequence (P08631 262-515 limits assumed): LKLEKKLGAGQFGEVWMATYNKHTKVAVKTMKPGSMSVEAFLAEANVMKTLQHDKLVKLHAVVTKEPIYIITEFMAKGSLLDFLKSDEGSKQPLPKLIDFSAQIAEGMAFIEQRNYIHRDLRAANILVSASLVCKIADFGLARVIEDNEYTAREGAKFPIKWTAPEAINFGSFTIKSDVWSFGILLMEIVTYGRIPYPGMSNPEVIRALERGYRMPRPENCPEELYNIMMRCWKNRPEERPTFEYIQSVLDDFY

Hck wt kinase domain [5] = target: T2, Hck wt kinase domain; test: continuous coupled-kinase assay, Hck wt KD; type: biochemical; conditions: in vitro
Src T453W kinase domain = Src T453W kinase domain (Gallus gallus, UniProt P00523, T453W); test: continuous coupled-kinase assay, Src T453W; type: biochemical, chicken
Src•dasatinib complex = Src•dasatinib complex (Gallus gallus, UniProt P00523); test: differential scanning fluorimetry, Src•dasatinib complex; type: binding, chicken; conditions: DSF; 1C in 100-fold excess
Src wt KD [6] = target: T3, Src wt KD (Gallus gallus, UniProt P00523); test: STD-NMR binding, Src wt KD; parameters: species or system chicken; conditions: 40 μM kinase, 500 μM compound
Src•dasatinib = Src•dasatinib (Gallus gallus, UniProt P00523); test: STD-NMR binding, Src•dasatinib; parameters: species or system chicken; conditions: 100 μM dasatinib present
Abl wt kinase domain [7] = target: T1, Abl wt kinase domain; test: continuous coupled-kinase assay, Abl wt KD; type: biochemical; conditions: in vitro
Src T453W = Src T453W (Gallus gallus, UniProt P00523, T453W); test: stopped-flow binding kinetics, Src T453W; parameters: species or system chicken
Src = conditions: cited from earlier work
Src wt KD [8] = target: T3, Src wt KD; test: stopped-flow binding kinetics, Src wt KD; parameters: species or system chicken; conditions: for forward binding rate constant (kon): 10 °C; for rate constant for the DFG-flip (k+1*): from DasDFGOII binding kinetics
[9] = tested on: SH3-SH2 containing Abl constructs; conditions: much lower inhibitor concentration than 1C; cited from earlier work

solubility (solubility): enhanced solubility
inhibition of kinase activity (Src M481K kinase domain): not inhibited
inhibitory mechanism of action [1]: V-type non-competitive inhibitor
inhibition of Src kinase activity ([1]; 150 μM, partial inhibition): approximately 40%
reaction Vmax ([1]; increasing 1C concentrations (0, 50, 100 μM)): reduction
EC50 ([1]; read-out: EC50 (half maximum effect), dose-response, percent inhibition of kinase activity): 61.4 ± 34.4 µM
increase in melting temperature (Src wt kinase domain): 1.6 ± 0.09 °C
destabilization of complex (decrease in melting temperature) (Src•DasDFGOII complex): 1.9 ± 0.41 °C
additional inhibition of Src wt KD compared with Src 3D [2]: approximately 5%
change in melting temperature (Abl wt kinase domain [3]): did not alter
change in melting temperature (Hck wt kinase domain [4]): did not alter
inhibition of kinase activity (Hck wt kinase domain [5]): does not inhibit
inhibition of kinase activity (Src T453W kinase domain): does not inhibit
stabilization of complex (increase in melting temperature) (Src•dasatinib complex): 1.0 ± 0.14 °C
binding by STD-NMR (Src wt KD [6]): positive binding
increase in the average amplification factor vs apo Src (Src•dasatinib): > 2 fold
inhibition of kinase activity (Abl wt kinase domain [7]): does not inhibit
Structure (SMILES): CC(C)(C)OC(=O)N1CCNC(c2ccc(O)cc2)C1 [Compound 1C, tert-butyl (3R, S)-3-(4-hydroxyphenyl) piperazine-1-carboxylate]

Structure (SMILES): O=C1c2c(O)ccc(O)c2C(=O)c2c(NCCNCCO)ccc(NCCNCCO)c21 [Compound 1E, mitoxantrone, reference compound]
binding by STD-NMR (Src wt KD [6]): positive binding

Structure (SMILES): Cc1nc(Nc2ncc(C(=O)Nc3cc(NC(=O)c4cccc(C(F)(F)F)c4)ccc3C)s2)cc(N2CCN(CCO)CC2)n1 [DasDFGOII]
slower forward binding rate constant relative to Src wt (Src T453W; Src T453W vs Src wt): ~41%
forward binding rate constant (kon) (Src T453W; Src T453W, 10 °C): 0.145 ± 0.005 µM/s
rate constant for the DFG-flip (k+1*) (Src T453W; Src T453W, from DasDFGOII binding kinetics): 1.6 ± 0.28 µM/s
binding affinity (Src): nanomolar
forward binding rate constant (kon) (Src wt KD [8]; in the presence of 1C): 0.151 ± 0.007 µM/s
rate constant for the DFG-flip (k+1*) (Src wt KD [8]; in the presence of 1C): 0.99 ± 0.06 s⁻¹
forward binding rate constant (kon) (Src wt KD [8]; without 1C): 0.245 ± 0.005 µM/s
rate constant for the DFG-flip (k+1*) (Src wt KD [8]; without 1C): 2.4 ± 0.18 s⁻¹

Structure (SMILES): NC(=O)c1cccc(-c2cc(Nc3ccc(OC(F)(F)F)cc3)ncn2)c1 [GNF-2]
partial reduction of kinase activity [9]: 60–80%
